Results from patent US9511042B2, “N-acyl amino acid derivatives for treating skin conditions such as cellulite” (HELIX BIOMEDIX INC., priority 2010, dated 2016).

Key:
[1] = system: 3T3-L1 preadipocytes; assay: Adipogenesis assay, Oil red O staining of lipid droplets (Cayman Adipogenesis Assay Kit); type: cell-based, murine
Method: (§1) The induction of lipolysis in differentiated adipocytes was determined in 3T3-L1 adipocytes using a fatty acid assay kit manufactured by BioVision (Mountain View, Calif.) (Free Fatty Acid Quantification Kit, Cat. No. K612-100). Free fatty acid release correlates with an increase in the level of glycerol. Adipocytes for these assays were prepared as follows. 3T3-L1 murine pre-adipocytes were purchased from the American Type Culture Collection (ATCC) (CL-173™). The cells were cultured in complete medium (ATCC-formulated Dulbecco's Modified Eagle's Medium supplemented with 10% bovine calf serum) and allowed to reach 100% confluence. The induction of differentiation or adipogenesis was carried out in complete medium. On day 0, cells were treated with complete medium containing induction agents (100 μg/ml isobutylmethyxanthine (Sigma, St. Louis, Mo.), 5 μg/ml insulin and 2 μg/ml dexamethasone). On day 3, cells were changed to complete medium containing 5 μg/ml insulin and incubated for 2-3 days. Then, cells were maintained in complete medium for 3-6 days when the majority of cells developed observable intracellular lipid droplets.
Intracellular lipid droplet production in adipocytes is a feature of adipogenesis. Therefore, adipogenesis was monitored by staining for lipid droplets in cells using the Adipogenesis Assay Kit from Cayman (Ann Arbor, Mich.) following the manufacture's instructions. […]

[2] = system: 3T3-L1 adipocytes; assay: Lipolysis: free fatty acid release in differentiated adipocytes (BioVision Free Fatty Acid Quantification Kit); type: cell-based, murine; details: 100 μg/ml, overnight; for free fatty acids production in adipocytes relative to known lipolysis inducers (FIG. 4): compared with carnitine, resveratrol, isoproterenol, aminophylline, theophylline, caffeine
Method: The degree of fatty acid release can be used to gauge the relative level of glycerol release given this correlation. The following methods were used to determine the effect of 4-methyl-2-(octanoylamino) pentanoic acid and N-isopentyloctanamide on lipolysis in adipocytes.
as §1
For analyzing the effects of 4-methyl-2-(octanoylamino) pentanoic acid and N-isopentyloctanamide on lipolysis, cells (adipocytes prepared above) were treated with either of these compounds at 100 μg/ml. Alternatively, cells were treated overnight with certain substances (e.g., resveratrol, isoproterenol, aminophylline, theophylline) (100 μg/ml) previously known to be lipolysis inducers. Supernatant from each of the cultures was measured for relative glycerol release as estimated using the free fatty acid quantification kit from BioVision following the manufacturer's instructions.

[3] = system: 3T3-L1 adipocytes; assay: Cytotoxicity to adipocytes at the concentrations used to stimulate lipolysis; type: cell-based, murine; details: at the concentrations used to stimulate lipolysis (data not shown)
From the text: Both HB2031 and HB2032 were not cytotoxic to 3T3-L1 adipocytes at the concentrations used to simulate lipolysis (data not shown).

[4] = system: EpiDerm™ Skin Model; assay: EpiDerm MTT assay for cytotoxicity toward skin tissue; type: cell-based; details: for cell viability (OD570) compared to the glycerin vehicle: 100 μg/ml, 2, 5 and 18 hour incubation (FIG. 7); for toxicity to skin tissue: 1 mg/ml for 24 hours (data not shown)

CCCCCCCC(=O)NCCC(C)C [HB2032, N-isopentyloctanamide]
differentiation of cells into adipocytes (enlarged cells, intracellular lipid droplets) ([1]; 100, 150, 200 μg/ml with adipogenesis inducers for nine days, concentration dependent (FIG. 6C-E)): inhibited the differentiation of cells into adipocytes
intensity of cellular lipid formation (Oil red O staining) ([1]; low concentration (FIG. 6C, 100 μg/ml), nine days): significantly reduced
free fatty acids production compared with isoproterenol, assay in triplicate (FIG. 5) [2]: significantly more active than isoproterenol
free fatty acids production in adipocytes relative to known lipolysis inducers (FIG. 4) [2]: to a higher degree than all the other compounds tested
cytotoxicity to 3T3-L1 adipocytes [3]: not cytotoxic
cell viability (OD570) compared to the glycerin vehicle [4]: no difference in cell viability
toxicity to skin tissue [4]: no toxicity

CCCCCCCC(=O)NC(CC(C)C)C(=O)O (stereo not drawn) [HB2031, 4-methyl-2-(octanoylamino) pentanoic acid]
free fatty acids production compared with isoproterenol, assay in triplicate (FIG. 5) [2]: significantly more active than isoproterenol
free fatty acids production in adipocytes relative to known lipolysis inducers (FIG. 4) [2]: to a higher degree than all the other compounds tested
cytotoxicity to 3T3-L1 adipocytes [3]: not cytotoxic
cell viability (OD570) compared to the glycerin vehicle [4]: no difference in cell viability
toxicity to skin tissue [4]: no toxicity
